Patent US4751302A, “Indazole derivatives” (priority 1982, dated 1988)
Values joined by “and” are separate entries in the source; they are usually repeats but may differ in a detail not shown here. Equal entries are not always repeated. “Also recorded” adds a separate entry of the source.

Assays:
[1] = tested on: carrageenin edema on hind paw; experiment: Carrageenin edema inhibition, comparison with 3-amino-5-chloroindazole; assay type: in vivo, female Wister rats; settings: oral; for inhibition to the (carrageenin) edema: after 3 hours from the injection of 1% carrageenin
Method: (§1) To female Wister rats weighing 130-150 g nothing was fed for 19 hours. Then, the rats were orally administered the test compound. Sixty minutes later, the pad of a hind paw of the rat was injected with 0.1 ml of 1% carrageenin solution. After edema was formed on the paw, paw volume and body temperature of the rat were measured, and movement of the rat was observed. As a result, both 3-amino-5-chloroindazole and Compound (46) show a strong inhibition to the edema, that is, 65% and 59%, respectively,after 3 hours from the injection.

[2] = Body temperature / side effects in carrageenin-treated rats; assay type: in vivo, female Wister rats
Method: as §1

[3] = Locomotor activity observation in carrageenin-treated rats; assay type: in vivo, female Wister rats; settings: oral, carrageenin-injected rats
Method: as §1

[4] = Superoxide capture by ESR and UV spectra (potassium superoxide / dicyclohexyl-18-crown-6 in acetonitrile); assay type: biochemical; settings: for catch of superoxide / one electron acceptance: ESR and UV
Method: As described in Yoshihiko Oyagi, "Superoxide and Medical Science", pp. 120-144, published by Kyoritsu Shuppan, a superoxide is considered to be one of the factors which cause the inflammation.
According to the description on Transactions of the Faraday Society, 59, 2016-2026 (1963), the UV spectrum of a phenoxy radical is observed at 380-430 nm. When the UV spectrum of a mixture of the 3-amino-5-hydroxyindazole and dicyclohexyl-18-crown-6 is measured in acetonitrile, λmax is observed at 306 nm. If potassium superoxide is added to the mixture, λmax is observed at 403 nm and 426 nm. On the other hand, no absorptions are observed at 350-450 nm when the UV spectra of potassium superoxide and 3-amino-5-hydroxyindazole are measured respectively in the presence of both dicyclohexyl-18-crown-6 and acetonitrile.

[5] = tested on: Carrageenin edema in rat's paw; experiment: Carrageenin Edema Test in Rat's Paw (anti-inflammatory activity, Table 1); assay type: in vivo; settings: 100 mg/kg oral, hydrochloride, rat
Method: An anti-inflammatory activity was measured by orally administering 100 mg/kg of a hydrochloride of the indazole derivative of this invention as set forth in Table 1 to an animal in accordance with the standard method of Carrageenin Edema Test in Rat's Paw described in C. A. Winter et al., Proc. Soc. Exp. Biol. Med., 111, 544 (1962).

[6] = tested on: Bradykinin inducing edema; experiment: Anti-edema test, bradykinin inducing edema (Table 2); assay type: in vivo, rat; settings: 100 mg/kg oral, after 30 minutes
Method: (§2) […] A. Winter et al., NonSteroidal Anti-inflammatory Drugs. As an edema inducing substance, bradykinin, histamine and serotonin were employed. […] Bradykinin inducing edema inhibition and histamine inducing edema inhibition were measured after 30 minutes of the administration, and serotonin inducing edema inhibition was measured after 3 hours of the administration.

[7] = tested on: Histamine inducing edema; experiment: Anti-edema test, histamine inducing edema (Table 2); assay type: in vivo, rat; settings: 100 mg/kg oral, after 30 minutes
Method: as §2

[8] = tested on: Serotonin inducing edema; experiment: Anti-edema test, serotonin inducing edema (Table 2); assay type: in vivo, rat; settings: 100 mg/kg oral, after 3 hours
Method: as §2

[9] = tested on: acetic acid-writing; experiment: Analgesic activity, acetic acid-writing test (Table 3); assay type: in vivo, animal (rat); standard mouse acetic acid-writing test; settings: 100 mg/kg oral
[10] = in vivo; settings: mouse, ip, intraperitoneal, hydrochloride, male ddy mice
[11] = potassium superoxide, dicyclohexyl-18-crown-6, acetonitrile

For `Nc1n[nH]c2ccc(Cl)cc12` [3-amino-5-chloroindazole, reference compound], the “inhibition to the (carrageenin) edema” value [1] was 65%, the “decrease of body temperature” value ([2]; oral, carrageenin-injected rats) was 3-4 °C and the “depression of locomotor activity” value [3] was “remarkable depression of locomotor activity”.
In the case of `Nc1n[nH]c2ccc(O)cc12` [3-amino-5-hydroxyindazole, 3-Amino-5-hydroxyindazole], the “ESR signals on addition to superoxide mixture (phenoxy radical)” value [4, 11] is reported as “six superfine signals are observed”, the “catch of superoxide / one electron acceptance” value [4, 11] is reported as “a phenoxy radical is produced” and the “UV λmax after adding potassium superoxide (phenoxy radical)” value ([4]; with potassium superoxide and dicyclohexyl-18-crown-6 in acetonitrile) is reported as 403 nm and 426 nm.
For `CCN(CC)CCCNc1n[nH]c2ccc(Cl)cc12` [(46), 3-(3-Diethylaminopropylamino)-5-chloroindazole], the inhibition in vivo at 100 mg/kg [5] was 59%, the “Bradykinin inducing edema Inhibition” value [6] was 14.7% and the “Histamine inducing edema Inhibition” value [7] was 31.0%. The “Serotonin inducing edema Inhibition” value [8] was 73.4%, the “Carrageenin edema inhibition activity relative to 3-amino-5-chloroindazole” value [1] was “the same Carrageenin edema inhibition activity as 3-amino-5-chloroindazole” and the “inhibition to the (carrageenin) edema” value [1] was 59%. The “side effects (decrease of body temperature, depression of locomotor activity), words” value ([2]; relative to 3-amino-5-chloroindazole) was “can relieve the side effects of 3-amino-5-chloroindazole”, the “Inhibition (acetic acid-writing, analgesic activity)” value [9] was 52% and the LD50 [10] was 211 mg/kg.
For `Nc1n[nH]c2ccc(O)cc12` [(162), 3-Amino-5-hydroxyindazole], the inhibition in vivo at 100 mg/kg [5] was 45%, the “catch of superoxide / one electron acceptance” value [4, 11] was “can catch the superoxide; also recorded: accepts one electron from the superoxide” and the LD50 [10] was 243 mg/kg.
